Measurements as given in article PMC4230991, “In Silico Design and Biological Evaluation of a Dual Specificity Kinase Inhibitor Targeting Cell Cycle Progression and Angiogenesis” (PLoS ONE, 2014).
Read-outs that look alike come from different tables or passages of the source. Blank lines part the entries; values can stand above or below the compound they belong to.

How the values were obtained:
[1] = molecular target: T1, recombinant human CDK1/cyclin B complex (Homo sapiens, UniProt P06493); parameters: method as in PMID 16204078; conditions: relative potency from IC50 values of a previous study; cited from earlier work
T1 construct: purchased Reaction Biology

MCF-7 cells = test: Flow cytometry analysis of cell cycle progression, breast cancer cells; conditions: 48 h
Method: (§3) Cells were pelleted at 140 g at 4°C for 5 min and supernatant discarded. Cells were fixed in ice-cold 70% (v/v) ethanol added dropwise and stored at −20°C prior to analysis. Immediately before flow cytometry, cells were pelleted (140 g at 4°C for 5 min), supernatant removed and cells washed twice in 500 µl PBS. 100 µg/ml ribonuclease and 50 µg/ml propidium iodide (Sigma-Aldrich) was added to each sample and incubated for 2–3 h at 37°C. Cells were pelleted (140 g at 4°C for 5 min), supernatant removed and cells washed in 500 µl PBS before being resuspended in 500 µl PBS buffer containing 2.5 mM EDTA. Samples were gated and run at a low flow rate (<1000 events s^−1) on a Fortessa flow cytometer (Becton Dickinson, Oxford, UK) with multi-laser and detection capabilities. The information from 10000 events was collect and data was analyzed using ModFit software (Becton Dickinson).
(H) Quantification of cell cycle ratios after inhibitor treatment. Error bars represent ±SEM (n = 3).). *p<0.05; **p<0.01; ***p<0.001; ****p<0.0001.

HUVECs [2] = test: Organotypic tubulogenesis assay (HUVEC-fibroblast co-culture); type: cell-based, human; conditions: for inhibition at 10 µM / inhibition at 50 µM: Homo sapiens, HUVEC
Method: This assay was performed as previously described, [27]. Primary human foreskin fibroblasts (pHFF) were a gift from Gareth Howell (University of Leeds, UK) and were cultured routinely in DMEM containing 10% (v/v) FBS up to passage 10. In co-culture with HUVECs, the medium was replaced for endothelial cell growth medium (Promocell, Heidelberg, Germany).
Figure 3 JK-31 inhibits angiogenesis in an ex vivo murine model and in vitro. (A) Effects of JK-31 on ex vivo angiogenic sprouting from wild-type mouse aortic ring explants. Aortic rings were seeded onto Matrigel and treated with JK-31 (0, 1, 10 or 50 µM) for six days and imaged by phase-contrast microscopy. Freehand black lines delineate the outermost extent of sprouting. (B) Absolute quantification of angiogenic sprout length. For each aortic ring, the mean of three longest sprouts was calculated. Error bars represent ±SEM (n = 18; ***p<0.001). (C) JK-31 inhibits endothelial tube formation in vitro in response to exogenous VEGF-A. HUVECs were seeded onto a confluent layer of primary fibroblasts and treated with VEGF-A (10 ng/ml) for seven days in the presence of DMSO or JK-31 (1, 10 or 50 µM). Co-cultures were stained with CD31 antibody followed by HRP-conjugated secondary antibody and visualized by light microscopy using […] (DAB)-staining (see Materials and Methods). (D) Fluorescence microscopy analysis of endothelial cell phenotypes and filopodia formation during tubulogenesis in the presence of VEGF-A and JK-31. White arrowheads indicate vestigial lamellipodia-like structures. (E) JK-31 inhibits endothelial tube formation in vitro in response to exogenous bFGF (20 ng/ml). Treatment and processing was carried out as described above. Quantification of (F) mean tubule branch length and (G) mean number of tubule branch points in response to JK-31 and exogenous growth factors. Light micrograph fields were chosen at random and quantification performed using Image J software. Error bars represent ± SEM (n = 10; *p<0.05; **p<0.01; ***p<0.001) for each respective growth factor.

HUVECs [3] = test: Flow cytometry analysis of cell cycle progression, endothelial cells; conditions: 48 h
Method: as §3
(H) Quantification of cell cycle ratios after inhibitor treatment. Error bars represent ±SEM (n = 3). ***p<0.001; ****p<0.0001.

[4] = molecular target: T1, recombinant human CDK1/cyclin B complex; test: 33P in vitro kinase HotSpot profiling assay, CDK1/cyclin B; type: biochemical; conditions: [γ-33P]-ATP 10 µM; substrate histone H1; ten-point curves
HUVECs [5] = test: Scratch wound healing assay; type: cell-based, human; conditions: 10 µM and above, 16 h
Method: Figure 4 JK-31 inhibits endothelial wound closure in vitro. (A) Scratch-wounded endothelial cell monolayers were incubated in either full growth medium (grey bars) or stimulated with 25 ng/ml VEGF-A (black bars) for 16 h in the presence of DMSO or JK-31 (1, 10 or 50 µM). Wounded cell monolayers were photographed before and after treatment and wound widths at each time point were measured using Image J software. Percentage wound closure was calculated by [(width before – width after)/width before] ×100. […] (B) Representative phase-contrast micrographs depicting wound closure over 16 h in the presence VEGF-A and either DMSO or JK-31 (10 µM).

IGF-1-mediated signaling = test: Immunoblot of IGF-1-mediated signaling in HUVECs; type: cell-based, human; conditions: JK-31 0.1-50 µM, IGF-1 100 ng/ml 10 min
Method: (§1) All experiments were conducted at <6 cell passages.
Supplementary file pone.0110997.s006.tif: Figure S6 Relative specificity of JK-31 for the VEGF-A-VEGFR2 signaling pathway. […] HUVECs were pre-treated with JK-31 (0, 0.1, 1, 10 or 50 µM) for 30 min followed by a 10 min stimulation with either (A) EGF (50 ng/ml) or (B) IGF-1 (100 ng/ml) in the presence of JK-31. Total cell lysates were prepared and processed for immunoblotting. Levels of phosphorylated Akt and ERK1/2 were analysed using phospho-specific antibodies. Membranes were stripped and re-probed for total protein levels and a loading control (α-tubulin). Representative immunoblots of three independent experiments are shown. (TIF) Click here for additional data file.

[6] = test system: mouse aortic ring explants; test: Ex vivo murine aortic ring angiogenesis assay; type: cell-based; conditions: 10 µM and above, six days, Matrigel
Method: Three male five-month old wild type C57Bl/6 mice were humanely sacrificed followed by cervical dislocation. A thoraco-abdominal incision was made and the heart and aorta excised and stored in Hank's balanced buffer. The aortas were cleaned by removing connective tissue and adventitia from the exterior and each aorta was cut into 18–24 rings. Ring explants were embedded into growth-factor reduced Matrigel basement membrane matrix (Beckton Dickinson) in a 24-well plate and incubated for 45 min at 37°C to allow the Matrigel to set and the rings to adhere. […] Rings were photographed and the degree of sprouting measured using Cell∧B imaging software (Olympus, Tokyo, Japan). The mean of the three longest angiogenic sprouts on each ring was measured.
Figure 3 JK-31 inhibits angiogenesis in an ex vivo murine model and in vitro. […] (B) Absolute quantification of angiogenic sprout length. For each aortic ring, the mean of three longest sprouts was calculated. […] (D) Fluorescence microscopy analysis of endothelial cell phenotypes and filopodia formation during tubulogenesis in the presence of VEGF-A and JK-31. […] Quantification of (F) mean tubule branch length and (G) mean number of tubule branch points in response to JK-31 and exogenous growth factors. Light micrograph fields were chosen at random and quantification performed using Image J software. […]

recombinant human VEGFR2 = molecular target: T2, recombinant human VEGFR2 (Homo sapiens, UniProt P35968); test: 33P in vitro kinase HotSpot profiling assay, VEGFR2; type: biochemical
T2 construct: purchased Reaction Biology

HUVECs [7] = test: MTS cell viability assay; type: cell-based, human; conditions: two days (48 h), concentrations of up to 50 µM
Method: 2000 endothelial cells were seeded per well of a 96-well plate and cultured in ECGM overnight. ECGM was then aspirated and cells starved in MCDB131 +0.2% (w/v) BSA for 2 h. After 2 h, media was changed for ECGM with or without DMSO, plus or minus 100 nM, 1 µM, 10 µM or 50 µM JK-31 and cells incubated for 48 h. Then, 10 µl of MTS reagent (CellTiter 96 AQueous Non-Radioactive Cell Proliferation Assay, Promega, Madison, Wisconsin, USA) was added to each well after 44 h. After further incubation for 4-6 h, we monitored the color change caused by reduction of the yellow tetrazolium compound (MTS) by metabolically active cells to brown formazan. Change in color was monitored at 490 nm using a Tecan Sunrise multiwavelength 96-well plate reader (Tecan, Mannedorf, Switzerland).
(A) Relevant protein expression in HUVECs and MCF-7 cells. Total cell lysates were processed for immunoblotting. Membranes were probed with antibodies raised against VEGFR2, CDK1 and β-actin. Representative immunoblot was shown. (B) HUVECs were treated with DMSO or JK-31 (0.1, 1, 10, 50 µM) in full growth medium for 48 h followed by MTS assay and subsequent measurement of absorbance at OD490. Error bars represent ±SEM (n = 5). (TIF) Click here for additional data file.

[8] = test system: FGF-stimulated intracellular signaling; test: Immunoblot of FGF (aFGF, bFGF)-stimulated ERK1/2 phosphorylation in HUVECs; type: cell-based, human; conditions: JK-31 0.1-50 µM
Method: as §1
(§2) Figure 2 JK-31 inhibits growth factor-stimulated receptor activation and downstream signal transduction. (A) HUVECs were pre-treated with JK-31 (0, 0.1, 1, 10 or 50 µM) for 30 min followed by 7.5 min stimulation with VEGF-A (25 ng/ml) in the presence of JK-31. Total cell lysates were prepared and processed for immunoblotting. Levels of phosphorylated VEGFR2, PLCγ1, Akt and ERK were analysed using phospho-specific antibodies. Membranes were stripped and re-probed for total protein levels and a loading control (α-tubulin). (B) Densitometric quantification of phosphorylated VEGFR2-pY1175 levels in response to VEGF-A and JK-31 treatment. Error bars represent ± SEM (n = 4; ***p<0.001). (C-D) JK-31 inhibits FGF-stimulated intracellular signaling in endothelial cells. HUVECs were pre-treated with JK-31 (0, 0.1, 1, 10 or 50 µM) for 30 min followed by 10 min stimulation with either (C) bFGF (50 ng/ml) or (D) aFGF (50 ng/ml) in the presence of JK-31. Cells were lysed and processed for immunoblotting. Representative immunoblots of three independent experiments are shown.

VEGFR2 = test: Immunoblot of VEGF-A-stimulated VEGFR2 activation and downstream signaling in HUVECs; type: cell-based, human
Method: as §1, §2

[9] = JK-31 10 or 50 µM, vs asynchronous controls

T2 sequence (P35968 20-1356): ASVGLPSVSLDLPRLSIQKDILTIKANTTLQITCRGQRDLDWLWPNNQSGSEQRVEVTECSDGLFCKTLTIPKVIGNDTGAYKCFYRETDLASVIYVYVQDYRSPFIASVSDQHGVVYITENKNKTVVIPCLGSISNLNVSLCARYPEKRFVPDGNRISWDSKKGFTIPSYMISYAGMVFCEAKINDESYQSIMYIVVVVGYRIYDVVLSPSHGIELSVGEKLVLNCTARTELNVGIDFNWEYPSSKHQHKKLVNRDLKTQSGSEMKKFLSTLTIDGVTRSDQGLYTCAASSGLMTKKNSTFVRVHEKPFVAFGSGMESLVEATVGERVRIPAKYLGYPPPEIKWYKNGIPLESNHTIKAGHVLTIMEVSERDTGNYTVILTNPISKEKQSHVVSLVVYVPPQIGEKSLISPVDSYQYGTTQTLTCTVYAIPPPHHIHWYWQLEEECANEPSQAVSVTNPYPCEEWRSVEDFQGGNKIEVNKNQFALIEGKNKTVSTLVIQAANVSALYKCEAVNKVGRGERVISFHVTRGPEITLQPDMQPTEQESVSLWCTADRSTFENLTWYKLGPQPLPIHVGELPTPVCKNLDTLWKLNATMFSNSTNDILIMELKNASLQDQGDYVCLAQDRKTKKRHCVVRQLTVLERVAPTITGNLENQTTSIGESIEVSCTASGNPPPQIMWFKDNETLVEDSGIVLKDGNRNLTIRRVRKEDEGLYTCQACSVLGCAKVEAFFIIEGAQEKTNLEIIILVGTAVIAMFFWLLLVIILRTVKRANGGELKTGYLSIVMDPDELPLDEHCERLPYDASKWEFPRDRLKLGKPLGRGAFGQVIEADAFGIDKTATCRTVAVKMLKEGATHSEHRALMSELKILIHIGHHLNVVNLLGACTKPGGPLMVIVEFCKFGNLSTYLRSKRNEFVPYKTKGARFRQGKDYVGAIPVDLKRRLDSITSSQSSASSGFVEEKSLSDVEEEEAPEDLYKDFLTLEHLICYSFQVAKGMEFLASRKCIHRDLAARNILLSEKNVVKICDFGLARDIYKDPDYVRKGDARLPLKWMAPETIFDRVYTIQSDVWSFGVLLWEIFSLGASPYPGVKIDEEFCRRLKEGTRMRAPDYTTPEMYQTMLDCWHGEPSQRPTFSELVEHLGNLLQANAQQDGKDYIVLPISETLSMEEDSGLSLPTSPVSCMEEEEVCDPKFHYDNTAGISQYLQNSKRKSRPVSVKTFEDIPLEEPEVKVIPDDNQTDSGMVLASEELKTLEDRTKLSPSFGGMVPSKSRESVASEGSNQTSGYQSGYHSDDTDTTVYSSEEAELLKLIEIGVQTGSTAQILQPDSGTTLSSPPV
T1 sequence (P06493 whole entry): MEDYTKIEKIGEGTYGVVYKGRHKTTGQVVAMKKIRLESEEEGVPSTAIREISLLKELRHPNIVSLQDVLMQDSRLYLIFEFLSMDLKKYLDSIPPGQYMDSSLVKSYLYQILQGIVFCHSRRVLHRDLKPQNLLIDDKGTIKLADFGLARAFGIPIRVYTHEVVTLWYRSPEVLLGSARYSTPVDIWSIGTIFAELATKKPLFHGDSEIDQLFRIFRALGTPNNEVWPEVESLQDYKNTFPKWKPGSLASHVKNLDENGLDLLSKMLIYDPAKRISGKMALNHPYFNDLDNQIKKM
T1 sequence (P14635 whole entry partner): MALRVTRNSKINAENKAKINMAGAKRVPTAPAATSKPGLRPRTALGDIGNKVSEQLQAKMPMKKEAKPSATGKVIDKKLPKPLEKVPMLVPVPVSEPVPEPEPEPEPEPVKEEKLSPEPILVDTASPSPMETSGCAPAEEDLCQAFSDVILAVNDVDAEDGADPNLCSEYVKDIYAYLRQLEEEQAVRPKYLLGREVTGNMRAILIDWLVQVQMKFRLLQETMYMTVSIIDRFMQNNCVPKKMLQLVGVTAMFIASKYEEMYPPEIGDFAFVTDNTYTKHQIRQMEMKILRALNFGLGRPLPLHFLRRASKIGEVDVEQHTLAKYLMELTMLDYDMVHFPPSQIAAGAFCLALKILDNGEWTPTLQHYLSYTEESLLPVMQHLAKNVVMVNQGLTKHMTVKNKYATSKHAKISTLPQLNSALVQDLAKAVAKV

SMILES: Nc1nc(Nc2ccc(S(N)(=O)=O)cc2)nn1C(=O)c1c(F)cccc1F [JNJ-7706621]
More potent inhibitor of CDK1 than VEGFR2 [1]: ~17 fold

IC50 [4]: 2540 nM
IC50 (recombinant human VEGFR2; [γ-33P]-ATP 10 µM, substrate poly[Glu:Tyr] (4:1), ten-point curves): 627 nM
Selectivity for VEGFR2 than CDK1 (recombinant human VEGFR2; relative potency from IC50 values): ~4 fold
Cellular IC50 relative to cell-free phosphorylation assay (VEGFR2; VEGF-A-stimulated VEGFR2 activation and downstream signaling in endothelial cells vs recombinant kinases): approximately 10 fold
SMILES: CC(C)(C)c1ccc(C(=O)n2nc(Nc3ccccc3)nc2N)cc1 [JK-31, (5-amino-3-(phenylamino)-1H-1,2,4-triazol-1-yl)(4-(tert-butyl)phenyl)methanone]
Number of cells present in G1 (MCF-7 cells; JK-31 10 or 50 µM): significant increase in the number of cells present in G1
Proportion of cells in G2/M phase (MCF-7 cells; [9]): significant decrease in the proportion of cells in the G2/M phase
Number of cells present in S phase (MCF-7 cells; JK-31 treatment): significantly decreased
Reduction of bFGF-stimulated branching (HUVECs [2]; 10 µM, bFGF 20 ng/ml): more than 90%
Endothelial tubule phenotype (HUVECs [2]; 10 µM, in the presence of VEGF-A): aberrant hyper-branched endothelial tubule phenotype
Reduction in branching (VEGF-A) (HUVECs [2]; 50 µM, VEGF-A 10 ng/ml, seven days): more than 80%
Reduction of bFGF-stimulated branching (HUVECs [2]; 50 µM, bFGF 20 ng/ml): more than 90%
inhibition at 10 µM (HUVECs [2]; 168 h, 10 µM, VEGF-A 10 ng/ml, seven days, read-out: Inhibition of VEGF-A-stimulated endothelial tube formation): ~35%
inhibition at 50 µM (HUVECs [2]; 168 h, 50 µM, VEGF-A 10 ng/ml, seven days, read-out: Inhibition of VEGF-A-stimulated endothelial tube formation): > 80%
inhibition at 10 µM (HUVECs [2]; 10 µM, bFGF 20 ng/ml, read-out: Inhibition of bFGF-stimulated endothelial tube formation): ~75%
inhibition at 50 µM (HUVECs [2]; 50 µM, bFGF 20 ng/ml, read-out: Inhibition of bFGF-stimulated endothelial tube formation): > 95%
Number of cells present in G1 (HUVECs [3]; JK-31 10 or 50 µM): significant increase in the number of cells present in G1
Proportion of cells in G2/M phase (HUVECs [3]; [9]): significant decrease in the proportion of cells in the G2/M phase
Number of cells present in S phase (HUVECs [3]; JK-31 treatment): not a significant change
VEGF-A-stimulated wound closure (HUVECs [5]; VEGF-A 25 ng/ml): completely inhibited
Wound closure in full growth medium (HUVECs [5]; full growth medium): only partially inhibited
ERK1/2 phosphorylation in response to IGF-1 (IGF-1-mediated signaling): not in response to either EGF or IGF-1
Inhibition of radial angiogenic sprout formation [6]: more than 40%
Cytotoxic effects on endothelial cells (cell viability, MTS) (HUVECs [7]): no significant cytotoxic effects
ERK1/2 phosphorylation in response to aFGF ([8]; aFGF 50 ng/ml 10 min): dose-dependent inhibition
ERK1/2 phosphorylation in response to bFGF ([8]; bFGF 50 ng/ml 10 min): dose-dependent inhibition
Inhibition of phosphorylation of residue Y1175 within VEGFR2 (VEGFR2; HUVECs, JK-31 10 µM and above, 30 min pre-treatment, VEGF-A 25 ng/ml 7.5 min): > 60%
VEGF-A-stimulated signal transduction (PLCγ1-pY783, Akt-pS473, ERK1/2-pT202/pY204) (VEGFR2; HUVECs, JK-31 0.1-50 µM, VEGF-A 25 ng/ml 7.5 min): inhibited VEGF-A-stimulated signal transduction in a dose-dependent manner
